Measurements as given in patent US9193986B2, “Method for marking or immobilising a target structure” (Fraunhofer-Gesellschaft Zur Forderung Der Angewandten …, priority 2012, dated 2015).
Non-standard residues stand in square brackets, D forms with d. Residues, ends and D or L forms follow the SMILES beside them. No end group written: not given here. *: point of attachment. FITC = O=C1OC2(c3ccc(O)cc3Oc3cc(O)ccc32)c2ccc(NC(=S)*)cc21; Dopa = N[CH](Cc1ccc(O)c(O)c1)C(=O)O; X1 = O=C1NC2CSC(CCCCC(=O)*)C2N1

Experiments:
[1] = target: Albumen lysozyme (Gallus gallus, UniProt P00698); experiment: Laccase-mediated coupling of structures with DOPA residue to a protein, MS analysis; assay type: biochemical; details: for formation of covalent adduct with lysozyme: equimolar and ten-fold excess, laccase, overnight, room temperature, pH 7.0; for conversion of lysozyme to the adduct: excess of the DOPA compound (ten-fold), FIGS. 5 and 8
Description: The following solutions were prepared in 10 mM phosphate buffer pH 7.0: • a) Albumen lysozyme 1 mg/ml, corresponding to 70 μM (solution 1) • b) Compound A (biotin-DOPA) 1 mg in 3 mL, corresponding to 700 μM (solution 2) and a 70 μM dilution (solution 3) • c) Compound B (biotin-RGD-DOPA) 1,2 mg in 2 ml, corresponding to 700 μM (solution 4) and a 70 μM dilution (solution 5) • d) Laccase (Trametes vers., ASA Spezialenzyme GmbH) 1 mg/ml corresponding to 20 u/ml (solution 6)
The reaction was started by mixing 500 μl lysozyme solution (Solution 1) with in each case 500 μl of solution 2 to solution 5 (i.e. in each case equimolar and ten-fold excess) and addition and mixing in 10 μl/0.2 u laccase (solution 6). Lysozyme with 500 μl 10 mM phosphate buffer pH 7.0 and laccase (solution 6) was used as control. The samples were incubated overnight at room temperature and the next day an aliquot was freed from low molecular weight constituents and salts using a desalting column (Micro Bio-Spin P6, BioRad) equilibrated with deionised waters.
The thereby prepared reaction product was analysed in an AB Sciex TOF/TOF™ 5800 system.

[2] = tested on: integrin αvβ6 expressing cells (HT1299, SVEC); experiment: Marking of integrin αvβ6 expressing cells with DOPA/FITC polypeptide, with and without laccase, FACS fluorescence after washing; assay type: cell-based; details: 5 μM polypeptide, without addition of laccase, washed three times with PBS, FIG. 1
Description: Marking of integrin αvβ6 expressing cells:
Cell type: Cell lines HT1299 (lung tumor), HUVEC, SVEC
Polypeptide for the marking: Ac-SPRGDLAVLGHK(FITC)GG-DOPA-G, SEQ ID NO: 1
Polypeptide solution: 4 mg/ml polypeptide in water corresponding to 2 mM
20 mg/ml laccase from Trameters versicolor, 20 U/mg, ASA Spezialenzyme GmbH, Wolfenbüttel
All FAC measurements were made on a Cytomics FC500 (Beckman Coulter).
(§1) The cells were in each case washed twice with PBS and then taken up in an amount of ca. 10^5 cells/ml in PBS. 950 μl portions of the solution were added to 1-ml-FACS-test tubes. Marked polypeptides with and without prior treatment with laccase, were then added according to the following Table 1.
(§2) For this, 40 μl NaAc solution, 105 μl water, 15 μl peptide solution and 120 μl laccase were added in a typical […] polypeptide batch. Samples without laccase contained the corresponding additional volume of water, samples with other polypeptide concentrations contained correspondingly more polypeptide solution (cf. Example 2). After an incubation time of 1 minute 50 μl were added in each case to the cell suspensions or placed in the FACS test tubes.
(§3) After an incubation time of at least 15 minutes the cells were washed three times with 2 ml PBS in the test tube and the fluorescence of the cells was then measured on a cell sorter. The total fluorescence of the cells was measured.

[3] = tested on: cell lines expressing αvβ6 integrin (HUVEC, SVEC, HT1299); experiment: Dependence of the binding on the polypeptide concentration (laccase-activated marking, FACS); assay type: cell-based; details: different concentrations, FIG. 2
Description: as §1, §2, §3
Corresponding to the above experimental procedure (Example 1) various cell lines, all of which express αvβ6 integrin, were marked with different polypeptide concentrations.

| Compound | formation of covalent adduct with lysozyme [1] | conversion of lysozyme to the adduct [1] | retention of the fluorescent polypeptide on the cells after washing [2] | binding to cells as a function of polypeptide concentration [3] |
| --- | --- | --- | --- | --- |
| NC(=O)C(Cc1ccc(O)c(O)c1)NC(=O)CCCCC1SCC2NC(=O)NC21 (stereo not drawn) [Compound A] | expected reaction products were found | a complete conversion was not achieved | – | – |
| N=C(N)NCCCC(NC(=O)CNC(=O)CCCCC1SCC2NC(=O)NC21)C(=O)NCC(=O)NC(CC(=O)O)C(=O)NC(Cc1ccc(O)c(O)c1)C(=O)NCC(=O)O (stereo not drawn) [Compound B, biotin-RGD-DOPA] (X1-GRGD[Dopa]G-OH; configuration not given here) | expected reaction products were found | a complete conversion was not achieved | – | – |
| Ac-SPRGDLAVLGHK(FITC)GG-DOPA-G (Ac-SPRGDLAVLGHK(FITC)GG[Dopa]G) [polypeptide] | – | – | can be washed again from the cells | bind depending on the concentration |
